Assay: xn = mol fraction of the nth substance listed
Settings: Liquid; for viscosity / speed of sound: 101 kPa; for viscosity: Capillary tube (Ostwald / Ubbelohde) method; for speed of sound: Frequency=2 MHz, Pulse-echo method; for mass density: 101.33 kPa, Vibrating tube method

N#CCc1ccccc1 [benzeneacetonitrile] + ClCCCl
Settings	mass density, 303.15 K [kg/m3]	mass density, 308.15 K [kg/m3]	mass density, 313.15 K [kg/m3]	speed of sound, 303.15 K [m/s]	speed of sound, 308.15 K [m/s]	speed of sound, 313.15 K [m/s]	viscosity, 303.15 K [mPa·s]	viscosity, 308.15 K [mPa·s]	viscosity, 313.15 K [mPa·s]
x1 = 0.0165	1233.5	1225.3	1218.7	1182.2	1171.9	1161	0.7352	0.6821	0.6456
x1 = 0.1059	1205.5	1198.9	1191.5	1221.2	1211.5	1200.5	0.8165	0.7512	0.708
x1 = 0.2041	1177.1	1171	1163.5	1262.4	1252.3	1243.7	0.9029	0.8313	0.7877
x1 = 0.3088	1149.2	1143.5	1136.1	1304.2	1293.6	1285.3	1.003	0.9258	0.8746
x1 = 0.4073	1124.8	1119.4	1111.8	1339.5	1330.8	1320.8	1.103	1.017	0.9576
x1 = 0.5122	1100.7	1095.6	1087.6	1374.8	1367.5	1355.9	1.213	1.117	1.048
x1 = 0.648	1072	1067.2	1058.8	1418.6	1411.8	1399.9	1.365	1.248	1.165
x1 = 0.8003	1042.8	1038.2	1029.5	1465.2	1458.9	1447.6	1.536	1.398	1.299
x1 = 0.9705	1013.6	1008.8	999.9	1512.6	1505.4	1499.1	1.725	1.568	1.456
x1 = 1	1008.8	1004.1	999.5	1519.2	1512.9	1503.4	1.761	1.602	1.489

N#CCc1ccccc1 [benzeneacetonitrile] + ClC=C(Cl)Cl
Settings	mass density, 303.15 K [kg/m3]	mass density, 308.15 K [kg/m3]	mass density, 313.15 K [kg/m3]	speed of sound, 303.15 K [m/s]	speed of sound, 308.15 K [m/s]	speed of sound, 313.15 K [m/s]	viscosity, 303.15 K [mPa·s]	viscosity, 308.15 K [mPa·s]	viscosity, 313.15 K [mPa·s]
x1 = 0.0195	1437	1428.5	1420	1024.6	1004.9	992.5	0.5201	0.486	0.4908
x1 = 0.119	1383.8	1377.2	1369.5	1073.5	1057.5	1045.8	0.5905	0.553	0.5292
x1 = 0.2263	1329.5	1323.9	1316.9	1128.2	1114.1	1102.9	0.6901	0.6417	0.6092
x1 = 0.3478	1271.9	1266.3	1260.1	1191	1179.2	1169.9	0.82	0.7558	0.715
x1 = 0.4396	1230.2	1225	1219.2	1238.9	1228.9	1221.9	0.9316	0.8529	0.7976
x1 = 0.5443	1184.5	1179.6	1174.2	1293.3	1284.6	1279.3	1.066	0.9721	0.9137
x1 = 0.6782	1128.8	1124.7	1119.5	1364.1	1356.5	1351	1.248	1.147	1.075
x1 = 0.819	1074.1	1070.3	1064.9	1435.8	1428.4	1425	1.456	1.339	1.248
x1 = 0.9692	1019.7	1015.3	1010.2	1504.1	1502.7	1499.2	1.698	1.546	1.439
x1 = 1	1008.8	1004.1	999.5	1519.2	1512.9	1503.4	1.761	1.602	1.489

N#CCc1ccccc1 [benzeneacetonitrile] + ClC(Cl)=C(Cl)Cl
Settings	mass density, 303.15 K [kg/m3]	mass density, 308.15 K [kg/m3]	mass density, 313.15 K [kg/m3]	speed of sound, 303.15 K [m/s]	speed of sound, 308.15 K [m/s]	speed of sound, 313.15 K [m/s]	viscosity, 303.15 K [mPa·s]	viscosity, 308.15 K [mPa·s]	viscosity, 313.15 K [mPa·s]
x1 = 0.0231	1591.9	1583	1575.7	1037.5	1024.4	1010.5	0.8124	0.7752	0.746
x1 = 0.1322	1520.1	1512.1	1505.3	1082.9	1070.9	1060.1	0.884	0.8382	0.8001
x1 = 0.249	1445.2	1438	1431.6	1133.9	1123.3	1113.4	0.9577	0.9171	0.868
x1 = 0.37	1369.8	1363.1	1357.1	1188.9	1178.8	1168.9	1.06	0.9982	0.9342
x1 = 0.4713	1308.3	1302	1296.2	1236.8	1226.7	1216.8	1.159	1.077	1.003
x1 = 0.5767	1245.7	1239.8	1234.3	1288.5	1278.5	1268.9	1.269	1.172	1.096
x1 = 0.7051	1171.4	1166.1	1160.8	1355	1345	1335.7	1.413	1.294	1.207
x1 = 0.8386	1096.5	1091.6	1086.6	1428	1419.2	1409.3	1.571	1.43	1.329
x1 = 0.972	1023.9	1019.2	1014.5	1504.1	1497.9	1486.1	1.726	1.57	1.458
x1 = 1	1008.8	1004.1	999.5	1519.2	1512.9	1503.4	1.761	1.602	1.489

N#CCc1ccccc1 [benzeneacetonitrile] + ClC(Cl)C(Cl)Cl
Settings	mass density, 303.15 K [kg/m3]	mass density, 308.15 K [kg/m3]	mass density, 313.15 K [kg/m3]	speed of sound, 303.15 K [m/s]	speed of sound, 308.15 K [m/s]	speed of sound, 313.15 K [m/s]	viscosity, 303.15 K [mPa·s]	viscosity, 308.15 K [mPa·s]	viscosity, 313.15 K [mPa·s]
x1 = 0.0221	1566.5	1558.5	1551.7	1142	1125	1107.4	1.489	1.376	1.277
x1 = 0.1374	1497.2	1490.1	1483.5	1179.7	1166.3	1154.6	1.661	1.528	1.413
x1 = 0.2564	1426.9	1420	1413.8	1220.9	1209.3	1201.6	1.838	1.678	1.544
x1 = 0.3743	1358.8	1351.7	1345.9	1263.5	1251.5	1245.6	1.954	1.775	1.63
x1 = 0.4799	1297.2	1291.5	1285.9	1303.1	1289.9	1283.9	2.011	1.837	1.674
x1 = 0.5852	1236.4	1231.7	1226.2	1343.4	1329.5	1323.9	2.017	1.832	1.682
x1 = 0.7131	1164.2	1160.2	1154.9	1393.9	1381	1373.2	1.966	1.796	1.645
x1 = 0.8414	1093.9	1089.9	1085	1446.4	1436.5	1426.2	1.894	1.725	1.597
x1 = 0.9748	1022.5	1018.2	1013.5	1504.3	1497.2	1487.4	1.772	1.617	1.503
x1 = 1	1008.8	1004.1	999.5	1519.2	1512.9	1503.4	1.761	1.602	1.489

ClCC(Cl)Cl [1,1,2-trichloroethane] + N#CCc1ccccc1
Settings	mass density, 303.15 K [kg/m3]	mass density, 308.15 K [kg/m3]	mass density, 313.15 K [kg/m3]	speed of sound, 303.15 K [m/s]	speed of sound, 308.15 K [m/s]	speed of sound, 313.15 K [m/s]	viscosity, 303.15 K [mPa·s]	viscosity, 308.15 K [mPa·s]	viscosity, 313.15 K [mPa·s]
x2 = 0	1425	1416.1	1409.6	1129.2	1115.9	1096.1	1.019	0.9483	0.8888
x2 = 0.0185	1415.6	1407.2	1400.5	1137	1125	1105.9	1.046	0.9728	0.9045
x2 = 0.1212	1364.9	1358.6	1351.2	1176.7	1168.2	1150.9	1.158	1.064	0.9825
x2 = 0.2319	1312.6	1307.3	1300.6	1219.7	1214.2	1199.9	1.264	1.163	1.074
x2 = 0.3463	1261.1	1256.2	1250.2	1263.4	1261.9	1248.1	1.365	1.259	1.169
x2 = 0.445	1218.6	1214	1208.4	1301	1301.5	1288.9	1.454	1.336	1.242
x2 = 0.5545	1173.4	1168.9	1163.6	1342.8	1343.3	1332.8	1.545	1.411	1.307
x2 = 0.6861	1121.7	1117.3	1112.1	1393.4	1392.9	1383.2	1.631	1.491	1.381
x2 = 0.8245	1070.3	1065.7	1060.7	1446.6	1445.1	1431.8	1.706	1.561	1.436
x2 = 0.972	1018.4	1013.7	1009	1505.3	1498.7	1488.9	1.758	1.595	1.477
